The source of these data is patent publication US20240043382A1, “MODIFIED INDOLE ALKALOIDS FOR THERAPEUTIC USES” (priority 2020, published 2024).

Data set [1] has as its target T1, human 5-HT2A (h5-HT2A) receptor (Homo sapiens, UniProt P28223).
T1 construct: host or cells: Flp-In T-REx 293 cells
In words: 5-HT2A receptor functional assay (Gq-mediated calcium flux) of saliva-hydrolyzed modified indole alkaloids. The class given is cell-based. To be noted: 5HT2A agonist activity, compounds hydrolyzed by treatment with human saliva; for pEC50: Flp-In T-REx 293 cells expressing h5-HT2A, peak calcium flux; for Emax % 5-HT (± SEM): normalized to 5-HT (100%). (A change in cytosolic calcium serves as a functional read-out for many receptors and channels.)

In data set [2] the target is T2, human 5-HT2C (h5-HT2C) receptor (Homo sapiens, UniProt P28335).
T2 construct: host or cells: Flp-In T-REx 293 cells
T2 sequence (P28335 33-458): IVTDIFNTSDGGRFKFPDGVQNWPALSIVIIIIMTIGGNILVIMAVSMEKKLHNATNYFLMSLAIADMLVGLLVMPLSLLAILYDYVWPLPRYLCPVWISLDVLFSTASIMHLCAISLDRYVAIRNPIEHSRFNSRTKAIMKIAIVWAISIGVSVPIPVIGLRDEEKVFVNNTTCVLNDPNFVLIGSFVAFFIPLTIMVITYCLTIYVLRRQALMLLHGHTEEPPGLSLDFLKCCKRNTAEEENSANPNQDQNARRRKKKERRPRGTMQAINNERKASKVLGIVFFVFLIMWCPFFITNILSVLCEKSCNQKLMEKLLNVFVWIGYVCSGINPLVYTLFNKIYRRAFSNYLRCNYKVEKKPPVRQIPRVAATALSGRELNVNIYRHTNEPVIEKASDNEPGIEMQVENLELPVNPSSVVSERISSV
In words: 5-HT2C receptor functional assay (Gq-mediated calcium flux) of saliva-hydrolyzed modified indole alkaloids. Format: cell-based. The note with it: 5HT2C agonist activity, compounds hydrolyzed by treatment with human saliva; for pEC50: Flp-In T-REx 293 cells expressing h5-HT2C, peak calcium flux; for Emax % 5-HT (± SEM): normalized to 5-HT (100%).

The target in data set [3] is T1, human 5-HT2A (h5-HT2A) receptor. In words: 5-HT2A receptor functional assay (calcium flux) of modified indole alkaloids digested with calf intestinal alkaline phosphatase. The class given is cell-based. The note with it: after 2 hours with 100 units calf intestinal alkaline phosphatase, pH 7.9, 25° C.; compared to 5-HT. The protocol: 1 mM of 4-3-(2-(dipropylamino)ethyl)-1H-indol-4-yl dihydrogen phosphate (Compound A) was incubated with 100 units of calf intestinal alkaline phosphatase for 2 hours in buffer containing 50 mM Potassium acetate, 20 mM Tris-acetate, 10 mM Magnesium acetate, and 100 μg/ml BSA at pH 7.9 and 25° C. 1 mM of 4-3-(2-(diisopropylamino)ethyl)-1H-indol-4-yl dihydrogen phosphate (Compound B) was incubated with 100 units of calf intestinal alkaline phosphatase for 2 hours in buffer containing 50 mM Potassium acetate, 20 mM Tris-acetate, 10 mM Magnesium acetate, and 100 μg/ml BSA at pH 7.9 and 25° C. The resulting solutions containing dephosphorylated products were used in a 5-HT2A receptor functional assay. […]
Before the experiment, plates were allowed to equilibrate to room temperature, and calcium flux was measured using a […] cellular screening system (Molecular Devices, Sunnyvale, CA). Plates were read for fluorescence initially for 10 s (1 read per second) to establish a baseline and then stimulated with drug dilutions or buffer and read for an additional 120 s. Peak fluorescence in each well was normalized to the maximum fold increase over baseline. […] Data were analyzed using the sigmoidal dose-response function of Prism 5.0 or 8.0 (GraphPad Software, San Diego, CA). Relative activity (RA) was expressed as the logarithm of the ratio of Emax over EC50 parameter estimates. […]

The nature of data set [4]: Digestion of modified indole alkaloids with human salivary samples (LC-MS). The class given is in vitro ADME. The note with it: 100 μM compound, 50 μL human saliva, 2 hours at 37° C., pH 7.5. The protocol:
Human saliva samples were collected 25 minutes before food intake after 8 hours fasting from an adult subject with no clinical symptoms. For saliva collection, saliva samples were obtained by passive drool into sterile 10 mL centrifuge tubes over a 5-min period. Immediately after collection, saliva samples were centrifuged (500 g for 10 min at 4° C.) and the supernatant was recovered and used immediately or stored at −80° C. until further use.
Eleven 100-μL reaction mixtures were prepared, consisting of: • 50 mM HEPES pH 7.5 • 50 mM NaCl • 100 μM modified indole alkaloid product (from Reactions 3, 24, 39-47, respectively) • 50 μL, of human saliva sample • 2 mM calcium chloride • 5 mM magnesium chloride
The reaction mixtures were digested for 2 hours at 37° C., and heated to 80° C. for 5 minutes to terminate the reactions. The reaction mixtures were then centrifuged at 30,000 ref and the supernatant transferred to a fresh sample tube.
One microliter of the sample was injected onto a ZORBAX StableBond-C18, 1.8 um, 2.1×50 mm column at 20° C. using a 0.3 mL/min flow rate and major ion species were detected with a 6520 Accurate-Mass Q-TOF LC-MS (Agilent) in positive mode. The mobile phase consisted of a mixture of 0.1% formic acid in acetonitrile (v/v) and 0.1% formic acid in water (v/v) was eluted under the following gradient conditions (shown in relation to acetonitrile content): 0 min-10%, 6 min-100%, 7 min-10%, 14 min-10%. The mobile phase was delivered at a flow rate of 0.3 mL/min and the total analytical run time was 14 min.

pEC50: −log10 of the molar value.

A word on the pEC50: it is the EC50 on a negative log10 scale, so that one unit is a factor of ten.

T1 sequence (P28223 whole entry): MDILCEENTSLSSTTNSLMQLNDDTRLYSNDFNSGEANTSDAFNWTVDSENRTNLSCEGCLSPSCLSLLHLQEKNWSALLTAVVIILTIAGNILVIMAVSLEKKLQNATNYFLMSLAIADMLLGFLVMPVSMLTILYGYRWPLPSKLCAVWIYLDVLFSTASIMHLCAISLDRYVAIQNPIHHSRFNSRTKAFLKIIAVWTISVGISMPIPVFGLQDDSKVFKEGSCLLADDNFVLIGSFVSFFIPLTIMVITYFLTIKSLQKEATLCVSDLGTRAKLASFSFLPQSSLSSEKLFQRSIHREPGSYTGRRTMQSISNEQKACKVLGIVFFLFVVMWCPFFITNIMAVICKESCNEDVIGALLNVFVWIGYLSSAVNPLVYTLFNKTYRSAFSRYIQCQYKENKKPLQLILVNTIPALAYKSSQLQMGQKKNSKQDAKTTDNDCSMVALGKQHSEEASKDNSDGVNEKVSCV

With `CCN(C)CCc1c[nH]c2cccc(O[C@H]3O[C@H](CO)[C@@H](O)[C@H](O)[C@H]3O)c12` (stereo in doubt) [Hydrolyzed Compound A-1, 2-((3-(2-(ethyl(methyl)amino)ethyl)-1H-indol-4-yl)oxy)-6-(hydroxymethyl)tetrahydro-2H-pyran-3,4,5-triol], in data set [1], the pEC50 is 8.40 and the “Emax % 5-HT (± SEM)” value was 96.7 ± 1.1 % 5-HT. Further, in data set [2], the pEC50 is 7.52 and the “Emax % 5-HT (± SEM)” value was 89.9 ± 2.1 % 5-HT.

On to `CCCN(C)CCc1c[nH]c2cccc(O[C@H]3O[C@H](CO)[C@@H](O)[C@H](O)[C@H]3O)c12` (stereo in doubt) [Hydrolyzed Compound A-2, 2-(hydroxymethyl)-6-((3-(2-(methyl(propyl)amino)ethyl)-1H-indol-4-yl)oxy)tetrahydro-2H-pyran-3,4,5-triol], for which, in data set [1], the pEC50 was 8.42 and the “Emax % 5-HT (± SEM)” value was found to be 98.0 ± 1.1 % 5-HT. Besides, in data set [2], the pEC50 was 7.32 and the “Emax % 5-HT (± SEM)” value was determined as 90.7 ± 1.5 % 5-HT.

As to `CCN(CC)CCc1c[nH]c2cccc(O[C@H]3O[C@H](CO)[C@@H](O)[C@H](O)[C@H]3O)c12` (stereo in doubt) [Hydrolyzed Compound A-4, 2-((3-(2-(diethylamino)ethyl)-1H-indol-4-yl)oxy)-6-(hydroxymethyl)tetrahydro-2H-pyran-3,4,5-triol], in data set [1], the negative logarithm of the EC50 (pEC50) was 8.19 and the “Emax % 5-HT (± SEM)” value was determined as 100.1 ± 1.1 % 5-HT. Moreover, in data set [2], the negative logarithm of the EC50 (pEC50) was 6.59 and the “Emax % 5-HT (± SEM)” value came out at 80.1 ± 1.9 % 5-HT.

Consider `CCCN(CCC)CCc1c[nH]c2cccc(O[C@H]3O[C@H](CO)[C@@H](O)[C@H](O)[C@H]3O)c12` (stereo in doubt) [Hydrolyzed Compound A-6, 2-((3-(2-(dipropylamino)ethyl)-1H-indol-4-yl)oxy)-6-(hydroxymethyl)tetrahydro-2H-pyran-3,4,5-triol], for which, in data set [1], the pEC50 is 8.78 and the “Emax % 5-HT (± SEM)” value was 103.2 ± 1.0 % 5-HT. Further, in data set [2], the pEC50 is 6.67 and the “Emax % 5-HT (± SEM)” value is reported as 84.2 ± 1.0 % 5-HT.

As for `CC(C)N(CCc1c[nH]c2cccc(O[C@H]3O[C@H](CO)[C@@H](O)[C@H](O)[C@H]3O)c12)C(C)C` (stereo in doubt) [Hydrolyzed Compound A-7, 2-((3-(2-(diisopropylamino)ethyl)-1H-indol-4-yl)oxy)-6-(hydroxymethyl)tetrahydro-2H-pyran-3,4,5-triol], the pEC50 in data set [1] was 8.17; in data set [2], 5.81. Besides, the “Emax % 5-HT (± SEM)” value in data set [1] is 103 ± 1.2 % 5-HT; in data set [2] it was 94.4 ± 1.2 % 5-HT.

On to `C=CCN(C)CCc1c[nH]c2cccc(O[C@H]3O[C@H](CO)[C@@H](O)[C@H](O)[C@H]3O)c12` (stereo in doubt) [Hydrolyzed Compound A-8, 2-((3-(2-(allyl(methyl)amino)ethyl)-1H-indol-4-yl)oxy)-6-(hydroxymethyl)tetrahydro-2H-pyran-3,4,5-triol], for which, in data set [1], the pEC50 is 8.44 and the “Emax % 5-HT (± SEM)” value worked out at 102 ± 1.0 % 5-HT. In addition, in data set [2], the negative logarithm of the EC50 (pEC50) was 7.31 and the “Emax % 5-HT (± SEM)” value is given as 81.5 ± 2.4 % 5-HT.

Regarding `CN(CCc1c[nH]c2cccc(O[C@H]3O[C@H](CO)[C@@H](O)[C@H](O)[C@H]3O)c12)C1CC1` (stereo in doubt) [Hydrolyzed Compound A-9, 2-((3-(2-(cyclopropyl(methyl)amino)ethyl)-1H-indol-4-yl)oxy)-6-(hydroxymethyl)tetrahydro-2H-pyran-3,4,5-triol], in data set [1], the pEC50 is 8.29 and the “Emax % 5-HT (± SEM)” value worked out at 99.4 ± 2.0 % 5-HT. In addition, in data set [2], the pEC50 was 6.83 and the “Emax % 5-HT (± SEM)” value stood at 79.1 ± 6.1 % 5-HT.

Take `CCCN(CCC)CCc1c[nH]c2cccc(OP(=O)(O)O)c12` [Compound A, 4-3-(2-(dipropylamino)ethyl)-1H-indol-4-yl dihydrogen phosphate]: the “functional agonism of 5HT2A receptor, peak calcium flux response (FIG. 5)” value in data set [3] was found to be 5HT2A agonism.

Turning to `CC(C)N(CCc1c[nH]c2cccc(OP(=O)(O)O)c12)C(C)C` [Compound B, 4-3-(2-(diisopropylamino)ethyl)-1H-indol-4-yl dihydrogen phosphate], the “functional agonism of 5HT2A receptor, peak calcium flux response (FIG. 5)” value in data set [3] is on record as 5HT2A agonism.

On to `CC(C)N(CCc1c[nH]c2cccc(OC(=O)CC(=O)O)c12)C(C)C` [Compound D, 3-((3-(2-(diisopropylamino)ethyl)-1H-indol-4-yl)oxy)-3-oxopropanoic acid], for which the “conversion by human saliva to 4-hydroxy-N,N-diisopropyltryptamine (LC-MS)” value (shortened to “conversion by human saliva”) in data set [4] is reported as “completely hydrolyzed”.

Consider `CC(=O)CC(=O)Oc1cccc2[nH]cc(CCN(C(C)C)C(C)C)c12` [Compound E, 3-(2-(diisopropylamino)ethyl)-1H-indol-4-yl 3-oxobutanoate], for which the “conversion by human saliva” value in data set [4] was “completely hydrolyzed”.

`CCCN(CC)CCc1c[nH]c2cccc(O[C@H]3O[C@H](CO)[C@@H](O)[C@H](O)[C@H]3O)c12` [Hydrolyzed Compound A-5, 2-((3-(2-(ethyl(propyl)amino)ethyl)-1H1-indol-4-yl)oxy)-6-(hydroxymethyl)tetrahydro-2H-pyran-3,4,5-triol]: the pEC50 in data set [1] is 8.50; in data set [2], 6.93. Moreover, the figures for the “Emax % 5-HT (± SEM)” value in data set [1] and in data set [2] were 99.4 ± 1.2 % 5-HT and 89.4 ± 2.6 % 5-HT, respectively.

In the case of `CC(C)N(CCc1c[nH]c2cccc(O[C@H]3O[C@H](CO)[C@@H](O)[C@H](O)[C@H]3O)c12)C(C)C` [Hydrolyzed Compound A-7, 2-((3-(2-(diisopropylamino)ethyl)-1H-indol-4-yl)oxy)-6-(hydroxymethyl)tetrahydro-2H-pyran-3,4,5-triol], the “conversion by human saliva” value in data set [4] was “completely deglycosylated”.
